Test results: ChEMBL document CHEMBL4371025, “Discovery and evaluation of novel FAAH inhibitors in neuropathic pain model” (Bioorg Med Chem Lett, 2019); call rule not given here

Legend:
[1] = tested on: CYP2C9; experiment: Selectivity ratio of IC50 for CYP2C9 in human liver microsomes to IC50 for human transmembrane domain deficient FFAH expressed in Escherichia coli; format: toxicity; details: read-out: Ratio IC50
[2] = tested on: CYP2D6; experiment: Selectivity ratio of IC50 for CYP2D6 in human liver microsomes to IC50 for human transmembrane domain deficient FFAH expressed in Escherichia coli; format: toxicity; details: read-out: Ratio IC50
[3] = tested on: CYP3A4; experiment: Selectivity ratio of IC50 for CYP3A4 in human liver microsomes using midazolam as substrate to IC50 for human transmembrane domain deficient FFAH expressed in Escherichia coli; format: toxicity; details: probe midazolam, read-out: Ratio IC50
[4] = tested on: CYP1A2; experiment: Selectivity ratio of IC50 for CYP1A2 in human liver microsomes to IC50 for rat FFAH expressed in Escherichia coli; format: toxicity; details: read-out: Ratio IC50
[5] = tested on: CYP2C19; experiment: Selectivity ratio of IC50 for CYP2C19 in human liver microsomes to IC50 for rat FFAH expressed in Escherichia coli; format: toxicity; details: read-out: Ratio IC50
[6] = tested on: CYP2D6; experiment: Selectivity ratio of IC50 for CYP2D6 in human liver microsomes to IC50 for rat FFAH expressed in Escherichia coli; format: toxicity; details: read-out: Ratio IC50
[7] = tested on: CYP3A4; experiment: Selectivity ratio of IC50 for CYP3A4 in human liver microsomes using testosterone as substrate to IC50 for rat FFAH expressed in Escherichia coli; format: toxicity; details: probe testosterone, read-out: Ratio IC50
[8] = target: T1, Monoglyceride lipase (Homo sapiens, UniProt Q99685); experiment: Inhibition of MAGL (unknown origin) up to 10 uM
T1 sequence (Q99685 whole entry): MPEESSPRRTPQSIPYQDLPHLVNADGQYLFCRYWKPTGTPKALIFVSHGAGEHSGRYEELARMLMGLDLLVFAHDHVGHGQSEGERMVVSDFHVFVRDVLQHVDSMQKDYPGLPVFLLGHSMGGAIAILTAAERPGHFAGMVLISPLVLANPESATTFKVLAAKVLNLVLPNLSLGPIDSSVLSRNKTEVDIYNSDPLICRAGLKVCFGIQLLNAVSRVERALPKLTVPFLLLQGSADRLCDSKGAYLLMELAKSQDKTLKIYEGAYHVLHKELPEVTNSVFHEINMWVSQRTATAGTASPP

[9] = Selectivity ratio of IC50 for MAGL (unknown origin) to IC50 for rat FFAH expressed in Escherichia coli; format: toxicity
[10] = Drug level in plasma of Sprague-Dawley rat at 10 mg/kg, po administered as single dose via gavage measured at 12 hrs by LC-MS/MS analysis; format: ADME, organism-based
[11] = Drug level in liver of Sprague-Dawley rat at 10 mg/kg, po administered as single dose via gavage measured at 12 hrs by LC-MS/MS analysis; format: ADME, organism-based; details: read-out: Drug uptake
[12] = Drug level in brain of Sprague-Dawley rat at 10 mg/kg, po administered as single dose via gavage measured at 12 hrs by LC-MS/MS analysis; format: ADME, organism-based; details: read-out: Drug uptake

| Compound | selectivity ratio [1] | selectivity ratio [2] | selectivity ratio [3] | selectivity ratio [4] | selectivity ratio [5] | selectivity ratio [6] | selectivity ratio [7] | inhibition (INH) [8] | Ratio IC50 [9] | concentration at 12 h [10] [µM] | concentration at 12 h [11] [µM] | concentration at 12 h [12] [µM] |
| --- | --- | --- | --- | --- | --- | --- | --- | --- | --- | --- | --- | --- |
| Nc1ncc(C(=O)N[C@H]2CC/C(=C\c3cccc(Oc4ccc(C(F)(F)F)cn4)c3)CC2)cn1 (stereo unspecified) | > 5000 | > 5000 | > 5000 | > 5000 | > 5000 | > 5000 | > 5000 | Not Active | > 10000 |  |  |  |
| O=C(N[C@H]1CC/C(=C\c2cccc(Oc3ccc(C(F)(F)F)cn3)c2)CC1)c1cccnc1 (stereo unspecified) |  |  |  |  |  |  |  |  |  | 1.9 | 21 | 3.6 |
| Cc1cc(C(=O)N[C@H]2CC/C(=C\c3cccc(Oc4ccc(C(F)(F)F)cn4)c3)CC2)cnc1N (stereo unspecified) | > 5000 | > 5000 | > 5000 | > 5000 | > 5000 | > 5000 | > 5000 | Not Active | > 10000 |  |  |  |
